Measurements published in the CheMixHub viscosity set.
Several values for one entry are separate records, joined by “and”; a condition that tells them apart may be missing. Equal values may be shown once.

Assay: xn = mol fraction of the nth substance listed

OCCNCCO + O
Details	viscosity
293.15 K, 101 kPa, x1 = 0.15	12.5 mPa·s
293.15 K, 101 kPa, x1 = 0.34	91.2 mPa·s
293.15 K, 101.3 kPa, x1 = 0.02	1.499 mPa·s
293.15 K, 101.3 kPa, x1 = 0.04	2.204 mPa·s
293.15 K, 101.3 kPa, x1 = 0.1	6.515 mPa·s and 12.37 mPa·s
293.15 K, 101.3 kPa, x1 = 0.2	25.81 mPa·s
293.15 K, 101.3 kPa, x1 = 0.3	53.68 mPa·s
293.15 K, 101.3 kPa, x1 = 0.4	143.3 mPa·s
293.15 K, 101.3 kPa, x1 = 0.6	353.7 mPa·s
293.15 K, 101.33 kPa, x1 = 0.019	1.427 mPa·s
293.15 K, 101.33 kPa, x1 = 0.041	2.171 mPa·s
298.15 K, 101 kPa, x2 = 0.9	5.29 mPa·s
298.15 K, 101 kPa, x2 = 0.9316	3.1 mPa·s
298.15 K, 101.3 kPa, x1 = 0.02	1.259 mPa·s
298.15 K, 101.3 kPa, x1 = 0.04	1.875 mPa·s
298.15 K, 101.3 kPa, x1 = 0.07	3.04 mPa·s
298.15 K, 101.3 kPa, x1 = 0.1	5.221 mPa·s and 9.782 mPa·s
298.15 K, 101.3 kPa, x1 = 0.2	19.24 mPa·s
298.15 K, 101.3 kPa, x1 = 0.3	39.15 mPa·s
298.15 K, 101.3 kPa, x1 = 0.4	97.87 mPa·s
298.15 K, 101.3 kPa, x1 = 0.6	245.4 mPa·s
298.15 K, 101.33 kPa, x1 = 0.0093	1.051 mPa·s
298.15 K, 101.33 kPa, x1 = 0.0188	1.255 mPa·s
298.15 K, 101.33 kPa, x1 = 0.0414	1.875 mPa·s
298.15 K, 101.33 kPa, x1 = 0.069	3.24 mPa·s
298.15 K, 101.33 kPa, x1 = 0.1028	5.486 mPa·s
298.15 K, 101.33 kPa, x1 = 0.1469	10.34 mPa·s
298.15 K, 101.33 kPa, x1 = 0.2054	21.44 mPa·s
298.15 K, 101.33 kPa, x1 = 0.2884	48.78 mPa·s
298.15 K, 101.33 kPa, x1 = 0.4026	112.5 mPa·s
298.15 K, 101.33 kPa, x1 = 0.6059	262.4 mPa·s
298.15 K, 101.33 kPa, x1 = 0.8012	420.3 mPa·s
298.15 K, 101.33 kPa, x1 = 0.9438	524.1 mPa·s
303.15 K, 101 kPa, x1 = 0.0501	1.922 mPa·s
303.15 K, 101 kPa, x1 = 0.1004	4.138 mPa·s
303.15 K, 101 kPa, x1 = 0.1509	8.25 mPa·s
303.15 K, 101 kPa, x1 = 0.2006	14.47 mPa·s
303.15 K, 101 kPa, x1 = 0.3008	36.44 mPa·s
303.15 K, 101 kPa, x1 = 0.4014	72.38 mPa·s
303.15 K, 101 kPa, x1 = 0.5011	118.4 mPa·s
303.15 K, 101 kPa, x1 = 0.5957	166.7 mPa·s
303.15 K, 101 kPa, x1 = 0.6968	224.8 mPa·s
303.15 K, 101 kPa, x1 = 0.8034	279.7 mPa·s
303.15 K, 101 kPa, x1 = 0.9012	320.5 mPa·s
303.15 K, 101.3 kPa, x1 = 0.02	1.106 mPa·s
303.15 K, 101.3 kPa, x1 = 0.07	2.74 mPa·s
303.15 K, 101.3 kPa, x1 = 0.1	4.42 mPa·s and 8.008 mPa·s
303.15 K, 101.3 kPa, x1 = 0.2	15.32 mPa·s
303.15 K, 101.3 kPa, x1 = 0.3	31.19 mPa·s
303.15 K, 101.3 kPa, x1 = 0.4	73.47 mPa·s
303.15 K, 101.3 kPa, x1 = 0.6	162.7 mPa·s
303.15 K, 101.33 kPa, x1 = 0.068	2.542 mPa·s
308.15 K, 101 kPa, x1 = 0.04	1.455 mPa·s
308.15 K, 101 kPa, x1 = 0.0501	1.679 mPa·s
308.15 K, 101 kPa, x1 = 0.054	1.795 mPa·s
308.15 K, 101 kPa, x1 = 0.1004	3.502 mPa·s
308.15 K, 101 kPa, x1 = 0.1509	6.653 mPa·s
308.15 K, 101 kPa, x1 = 0.2006	11.56 mPa·s
308.15 K, 101 kPa, x1 = 0.3008	27.8 mPa·s
308.15 K, 101 kPa, x1 = 0.4014	53.45 mPa·s
308.15 K, 101 kPa, x1 = 0.5011	85.56 mPa·s
308.15 K, 101 kPa, x1 = 0.5957	119 mPa·s
308.15 K, 101 kPa, x1 = 0.6968	158.6 mPa·s
308.15 K, 101 kPa, x1 = 0.8034	197.1 mPa·s
313.15 K, 101 kPa, x1 = 0.054	1.585 mPa·s
313.15 K, 101.3 kPa, x1 = 0.02	0.896 mPa·s
313.15 K, 101.3 kPa, x1 = 0.2	10.02 mPa·s
313.15 K, 101.3 kPa, x1 = 0.3	17.89 mPa·s
313.15 K, 101.3 kPa, x1 = 0.4	41.02 mPa·s
313.15 K, 101.3 kPa, x1 = 0.6	88.54 mPa·s
313.15 K, 101.33 kPa, x1 = 0.0093	0.755 mPa·s
313.15 K, 101.33 kPa, x1 = 0.0188	0.878 mPa·s
313.15 K, 101.33 kPa, x1 = 0.019	0.898 mPa·s
313.15 K, 101.33 kPa, x1 = 0.041	1.28 mPa·s
313.15 K, 101.33 kPa, x1 = 0.0414	1.25 mPa·s
313.15 K, 101.33 kPa, x1 = 0.068	1.93 mPa·s
313.15 K, 101.33 kPa, x1 = 0.069	1.884 mPa·s
313.15 K, 101.33 kPa, x1 = 0.1469	5.522 mPa·s
313.15 K, 101.33 kPa, x1 = 0.2054	10.42 mPa·s
313.15 K, 101.33 kPa, x1 = 0.2884	21.56 mPa·s
313.15 K, 101.33 kPa, x1 = 0.4026	44.04 mPa·s
313.15 K, 101.33 kPa, x1 = 0.6059	95.06 mPa·s
313.15 K, 101.33 kPa, x1 = 0.8012	143.9 mPa·s
313.15 K, 101.33 kPa, x1 = 0.9438	175.3 mPa·s
323.15 K, 101 kPa, x1 = 0.041	1.08 mPa·s
323.15 K, 101 kPa, x1 = 0.15	4.27 mPa·s
323.15 K, 101 kPa, x1 = 0.34	20.7 mPa·s
323.15 K, 101.3 kPa, x1 = 0.02	0.747 mPa·s
323.15 K, 101.3 kPa, x1 = 0.04	1.063 mPa·s
323.15 K, 101.3 kPa, x1 = 0.07	1.604 mPa·s
323.15 K, 101.3 kPa, x1 = 0.2	6.501 mPa·s
323.15 K, 101.3 kPa, x1 = 0.3	12.21 mPa·s
323.15 K, 101.3 kPa, x1 = 0.4	24.08 mPa·s
323.15 K, 101.3 kPa, x1 = 0.6	52.49 mPa·s
323.15 K, 101.33 kPa, x1 = 0.068	1.469 mPa·s
